Measured values from patent US7960339B2, “Antimicrobial peptides” (Österreichische Akademie der Wissenschaften, priority 2006, dated 2011).
Peptide text beside a SMILES is read from it. * marks the point of attachment. Dicyclohexylacetyl = O=C(C(C1CCCCC1)C1CCCCC1)*; Butanoyl(2,2-Me2) = CCC(C)(C)C(=O)*; X1 = CCCCC(CC)C(=O)*

The compounds below were run on C. neoformans ATCC 32045. Conditions: ATCC 32045, 72 h.
Type: cell-based
Procedure: C. neoformans ATCC 32045 cultures were maintained on yeast medium (YM; Difco Laboratories, Detroit, Mich.) agar plates at 4° C. Prior to the assay, the cultures were grown on agar plates and incubated for 72 hrs at 26° C. Two colonies of these newly grown fungal cultures were then inoculated in 5 ml of 2×YM broth, vortexed, and diluted 10-fold in 2×YM broth, for an approximate final assay concentration of 1×105 to 5×10^5 CFU/ml. In 96-well tissue culture plates, fungal suspensions in 2×YM broth were added to the peptides dispensed at concentrations ranging from 1 mg/ml to 1 μg/ml derived from serial twofold dilutions in sterile water. The plates were then incubated for 72 hrs at 26° C. The relative percent growth of the fungi found for each test sample was determined by the optical density at 620 nm (OD620) by using a Titertek Multiskan Plus apparatus. […] The IC50 were calculated by using a sigmoidal curve-fitting software program (Graphpad Prism; ISI Software, San Diego, Calif.).

Row | average IC50 [µg/mL] | average MIC [µg/mL] | Compound
1 | 6 | 16 | CCCCC(CC)C(=O)N[C@@H](Cc1ccccc1)C(=O)N[C@@H](Cc1c[nH]c2ccccc12)C(=O)N[C@@H](CCCNC(=N)N)C(=O)N[C@@H](CCCNC(=N)N)C(=O)N[C@@H](Cc1ccccc1)C(=O)N[C@@H](Cc1c[nH]c2ccccc12)C(=O)N[C@@H](CCCNC(=N)N)C(=O)N[C@@H](CCCNC(=N)N)C(N)=O (some centres unmarked) [VS1-61, 2-ethylhexanoyl FWRRFWRR-NH2] (X1-FWRRFWRR-NH2)
2 | 8 | 32 | N=C(N)NCCC[C@H](NC(=O)[C@H](CCCNC(=N)N)NC(=O)[C@H](Cc1c[nH]c2ccccc12)NC(=O)[C@H](CCCNC(=N)N)NC(=O)[C@H](CCCCN)NC(=O)[C@H](CCCNC(=N)N)NC(=O)[C@H](Cc1c[nH]c2ccccc12)NC(=O)[C@H](Cc1ccccc1)NC(=O)[C@@H]1CCCN1)C(N)=O [VS1-31, PFWRKRWRR-NH2] (H-PFWRKRWRR-NH2; N-terminus assumed)

The remaining lines, values behind:

Row | Compound | average IC50 [µg/mL] | average MIC [µg/mL]
3 | CC[C@H](C)[C@H](NC(=O)[C@H](CCCNC(=N)N)NC(=O)[C@@H](NC(=O)[C@H](CCCNC(=N)N)NC(=O)[C@H](Cc1c[nH]c2ccccc12)NC(=O)[C@H](Cc1ccccc1)NC(=O)[C@H](Cc1ccccc1)NC(=O)[C@@H]1CCCN1)[C@@H](C)CC)C(=O)N[C@@H](CCCNC(=N)N)C(=O)N[C@@H](CCCNC(=N)N)C(N)=O [VS1-24, PFFWRIRIRR-NH2] (H-PFFWRIRIRR-NH2; N-terminus assumed) | 3 | 8
4 | CC[C@H](C)[C@H](NC(=O)[C@H](CCC(N)=O)NC(=O)[C@H](CCCNC(=N)N)NC(=O)[C@H](CCCNC(=N)N)NC(=O)[C@H](Cc1c[nH]c2ccccc12)NC(=O)[C@H](Cc1ccccc1)NC(=O)[C@@H]1CCCN1)C(=O)N[C@@H](CCCNC(=N)N)C(=O)N[C@@H](CCCNC(=N)N)C(N)=O [VS1-26, PFWRRQIRR-NH2] (H-PFWRRQIRR-NH2; N-terminus assumed) | 6 | 32
5 | CC[C@H](C)[C@H](NC(=O)[C@H](CCCNC(=N)N)NC(=O)[C@@H](NC(=O)[C@H](CCCNC(=N)N)NC(=O)[C@H](CCCNC(=N)N)NC(=O)[C@H](CCCNC(=N)N)NC(=O)[C@H](Cc1c[nH]c2ccccc12)NC(=O)[C@H](Cc1ccccc1)NC(=O)[C@@H]1CCCN1)[C@@H](C)CC)C(=O)N[C@@H](CCCNC(=N)N)C(=O)N[C@@H](CCCNC(=N)N)C(N)=O [VS1-37, PFWRRRIRIRR-NH2] (H-PFWRRRIRIRR-NH2; N-terminus assumed) | 9 | 32
6 | CC[C@H](C)[C@H](NC(=O)[C@H](CCCNC(=N)N)NC(=O)[C@@H](NC(=O)[C@H](CCCNC(=N)N)NC(=O)[C@H](Cc1c[nH]c2ccccc12)NC(=O)[C@H](Cc1ccccc1)NC(=O)[C@@H]1CCCN1C(=O)C(C1CCCCC1)C1CCCCC1)[C@@H](C)CC)C(=O)N[C@@H](CCCNC(=N)N)C(=O)N[C@@H](CCCNC(=N)N)C(N)=O [VS1-54, dicyclohexylacetyl PFWRIRIRR-NH2] (Dicyclohexylacetyl-PFWRIRIRR-NH2) | 3 | 8
7 | CC[C@H](C)[C@H](NC(=O)[C@H](CCCNC(=N)N)NC(=O)[C@H](CCCCN)NC(=O)[C@H](Cc1c[nH]c2ccccc12)NC(=O)[C@H](CCCNC(=N)N)NC(=O)C(C)(C)CC)C(=O)N[C@@H](CC(N)=O)C(=O)N[C@@H](CCCNC(=N)N)C(=O)N[C@@H](CCC(N)=O)C(=O)N[C@@H](Cc1c[nH]c2ccccc12)C(=O)N[C@@H](Cc1ccccc1)C(N)=O [VS1-47, 2,2-dimethylbutanoyl RWKRINRQWF-NH2] ({Butanoyl(2,2-Me2)}-RWKRINRQWF-NH2) | 8 | 16
